Laboratory results from patent US20210355106A1, “NEW AMINO-PYRIMIDONYL-PIPERIDINYL DERIVATIVES, A PROCESS FOR THEIR PREPARATION AND PHARMACEUTICAL COMPOSITIONS CONTAINING THEM” (LES LABORATOIRES SERVIER, priority 2018, published 2021).

Assays:
[1] = tested on: Z138 mantle cell lymphoma tumour cell lines; assay: In vitro cytotoxicity, MTT assay; type: cell-based; details: Z138 cells, exposed to the test compounds for 96 hours
Summary of the method: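 MTT viability read-out: after 96 hours of compound treatment, Z138 mantle cell lymphoma cells received MTT for 4 hours, and formazan production was quantified by absorbance at 540 nm.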

USP7 = target: T1, USP7 (Homo sapiens, UniProt Q93009, C315A); assay: Inhibition of USP7 by Fluorescence Intensity (FLINT) readings, Ubiquitin-Rhodamine-110 substrate; type: biochemical; details: 0.25 nM His-His-USP7 (aa208-560), 60 minutes at 30° C. preincubation; Ki determined from IC50 according to Cer et al.
T1 construct: 0.25 nM His-His-USP7 (aa208-560, |C315A|) was incubated with compound; His-His (N)
T1 sequence (Q93009 208-560 C315A): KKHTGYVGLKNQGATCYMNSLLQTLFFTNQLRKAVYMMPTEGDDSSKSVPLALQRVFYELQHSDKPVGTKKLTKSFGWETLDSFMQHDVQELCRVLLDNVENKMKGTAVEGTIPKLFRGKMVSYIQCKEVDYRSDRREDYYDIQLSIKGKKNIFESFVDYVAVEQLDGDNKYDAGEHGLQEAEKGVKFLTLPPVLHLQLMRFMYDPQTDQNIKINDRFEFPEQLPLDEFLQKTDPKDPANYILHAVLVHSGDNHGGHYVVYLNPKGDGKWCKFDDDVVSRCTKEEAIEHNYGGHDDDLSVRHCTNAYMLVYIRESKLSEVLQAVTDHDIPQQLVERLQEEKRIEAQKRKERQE
Summary of the method: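 Kinetic rate of Rhodamine-110 release from ubiquitin substrate (50 nM or 4 μM), read every 3 min for 21 min, after 60 min, 30 °C preincubation of 0.25 nM USP7 catalytic domain C315A with compound. Bicine pH 8.0 buffer, 10% DMSO; 11-point IC50 vs DMSO and no-enzyme controls, converted to Ki.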

Molecule | IC50 ([1]; Homo sapiens, Z-138) [nM] | Ki (USP7) [nM] | IC50 [1] [nM]
Nc1c(Oc2ccc(F)cc2)ncn(CC2(O)CCN(C(=O)[C@@H]3CCN(Cc4cnc(Br)s4)C[C@H]3c3ccccc3)CC2)c1=O [Example 50, 5-amino-3-[[1-[(3R,4R)-1-[(2-bromothiazol-5-yl)methyl]-3-phenyl-piperidine-4-carbonyl]-4-hydroxy-4-piperidyl]methyl]-6-(4-fluorophenoxy)pyrimidin-4-one] | 6.17 | 7.89 | –
Cc1cc(Cl)cc(C(=O)N2CC[C@@H](C(=O)N3CCC(O)(Cn4cnc(Oc5ccc(F)cc5)c(N)c4=O)CC3)[C@H](c3ccccc3)C2)c1 [Example 162] | 3.72 | 12.7 | –
Cc1ccc(-c2ncc(CN3CC[C@@H](C(=O)N4CC[C@](O)(Cn5cnc(Oc6ccc(F)cc6)c(N)c5=O)C(F)(F)C4)[C@H](c4ccccc4)C3)s2)cn1 [Example 53] | 3.4 | 6.6 | –
Cc1ncc(-c2nc(C)c(C(=O)N3CC[C@@H](C(=O)N4CC[C@](O)(Cn5cnc(Oc6ccc(F)cc6)c(N)c5=O)C(F)(F)C4)[C@H](c4ccccc4)C3)s2)cc1C(F)(F)F [Example 185, 5-amino-3-[[(4S)-3,3-difluoro-4-hydroxy-1-[(3R,4R)-1-[4-methyl-2-[6-methyl-5-(trifluoromethyl)-3-pyridyl]thiazole-5-carbonyl]-3-phenyl-piperidine-4-carbonyl]-4-piperidyl]methyl]-6-(4-fluorophenoxy)pyrimidin-4-one] | 7.65 | 13 | –
Cn1c(C(=O)N2CC[C@@H](C(=O)N3CCC(O)(Cn4cnc(Oc5ccc(F)cc5)c(N)c4=O)CC3)[C@H](c3ccccc3)C2)cc2ccccc21 [Example 37, 5-amino-6-(4-fluorophenoxy)-3-({4-hydroxy-1-[(3R,4R)-1-(1-methyl-1H-indole-2-carbonyl)-3-phenylpiperidine-4-carbonyl]piperidin-4-yl}methyl)pyrimidin-4(3H)-one] | 6.66 | 13.6 | –
Cc1nc(C2CC(F)(F)C2)sc1C(=O)N1CC[C@@H](C(=O)N2CC[C@](O)(Cn3cnc(Oc4ccc(F)cc4)c(N)c3=O)C(F)(F)C2)[C@H](c2ccccc2)C1 [Example 190] | 6.82 | 12.4 | –
Nc1c(Oc2ccc(F)cc2)ncn(C[C@@]2(O)CCN(C(=O)[C@@H]3CCN(Cc4ncccn4)C[C@H]3c3ccccc3)CC2(F)F)c1=O [Example 204] | 26.9 | 36.5 | –
5-amino-3-[(3SR,4SR)-3-fluoro-4-hydroxy-1-(3R,4R)-1-[4-methyl-2-(6-methyl-3-pyridyl)thiazole-5-carbonyl]-3-phenyl-piperidine-4-carbonyl]-4-piperidyl]methyl]-6-(4-fluorophenoxy)pyrimidin-4-one and 5-amino-3-[[(3RS,4RS)-3-fluoro-4-hydroxy-1-[(3R,4R)-1-[4-methyl-2-(6-methyl-3-pyridyl)thiazole-5-carbonyl]-3-phenyl-piperidine-4-carbonyl]-4-piperidyl]methyl]-6-(4-fluorophenoxy)pyrimidin-4-one [Example 198] | – | 10.7 | 3.14
Nc1c(Oc2ccc(F)cc2)ncn(CC2(O)CCN(C(=O)[C@@H]3CCN(C(=O)Nc4nccs4)C[C@H]3c3ccccc3)CC2)c1=O [Example 86, (3R,4R)-4-[4-[[5-amino-4-(4-fluorophenoxy)-6-oxo-pyrimidin-1-yl]methyl]-4-hydroxy-piperidine-1-carbonyl]-3-phenyl-N-thiazol-2-yl-piperidine-1-carboxamide] | 838 | 58 | –
Nc1c(Oc2ccc(F)cc2)ncn(CC2(O)CCN(C(=O)[C@@H]3CCN(S(=O)(=O)c4ccccc4)C[C@H]3c3ccccc3)CC2)c1=O [Example 30, 5-amino-3-({1-[(3R,4R)-1-(benzenesulfonyl)-3-phenyl-piperidine-4-carbonyl]A-hydroxy-4-piperidyl]methyl]-6-(4-fluorophenoxy)pyrimidin-4-one] | 9.1 | 28.4 | –
CN(C(=O)N1CC[C@@H](C(=O)N2CCC(O)(Cn3cnc(Oc4ccc(F)cc4)c(N)c3=O)CC2)[C@H](c2ccccc2)C1)c1ccccc1 [Example 78, (3R,4R)-4-[4-[[5-amino-4-(4-fluorophenoxy)-6-oxo-pyrimidin-1-yl]methyl]-4-hydroxy-piperidine-1-carbonyl]-N-methyl-N,3-diphenyl-piperidine-1-carboxamide] | 15 | 58 | –
Cc1ccc(-c2nc(C)c(C(=O)N3CC[C@@H](C(=O)N4CCC(O)(Cn5cnc(Oc6ccccc6)c(N)c5=O)CC4)[C@H](c4ccccc4)C3)s2)cn1 [Example 46, 5-amino-3-[(4-hydroxy-1-((3R,4R)-1-[4-methyl-2-(6-methylpyridin-3-yl)-1,3-thiazole-5-carbonyl]-3-phenylpiperidine-4-carbonyl)piperidin-4-yl)methyl)-6-phenoxypyrimidin-4(3H)-one] | 3.1 | 2.9 | –
COc1cc(Oc2ncn(C[C@@]3(O)CCN(C(=O)[C@@H]4CCN(C(=O)c5sc(-c6ccc(C)nc6)nc5C)C[C@H]4c4ccccc4)CC3(F)F)c(=O)c2N)ccc1F [Example 179] | 1.34 | 5.58 | –
NCc1ccc(Oc2ncn(C[C@@]3(O)CCN(C(=O)[C@@H]4CCN(C(=O)c5cc(Cl)cc(Cl)c5)C[C@H]4c4ccccc4)CC3(F)F)c(=O)c2N)cc1 [Example 222, 5-amino-6-[4-(aminomethyl)phenoxy]-3-[[(4S)-1-[(3R,4R)-1-(3,5-dichlorobenzoyl)-3-phenyl-piperidine-4-carbonyl]-3,3-difluoro-4-hydroxy-4-piperidyl]methyl]pyrimidin-4-one] | 74.2 | 0.558 | –
CN(C(=O)CN1CC[C@@H](C(=O)N2CCC(O)(Cn3cnc(Oc4ccc(F)cc4)c(N)c3=O)CC2)[C@H](c2ccccc2)C1)c1ccccc1 [Example 74] | 70 | 78 | –
Nc1c(Oc2ccc(F)cc2)ncn(CC2(O)CCN(C(=O)[C@@H]3CCN(C4(c5ccccc5Cl)COC4)C[C@H]3c3ccccc3)CC2)c1=O [Example 140, 5-amino-3-[[1-((3R,4R)-1-[3-(2-chlorophenyl)oxetan-3-yl]-3-phenyl-piperidine-4-carbonyl]-4-hydroxy-4-piperidyl]methyl]-6-(4-fluorophenoxy)pyrimidin-4-one] | 20 | 12 | –
Nc1c(Oc2ccc(F)cc2)ncn(CC2(O)CCN(C(=O)[C@@H]3CCN(C(=O)Nc4cccc(Br)c4)C[C@H]3c3ccccc3)CC2)c1=O [Example 83] | 8.5 | 42 | –
Nc1c(Oc2ccc(F)cc2)ncn(CC2(O)CCN(C(=O)[C@@H]3CCN(C(=O)c4cc(F)cc(Br)c4)C[C@H]3c3ccccc3)CC2)c1=O [Example 98] | 7 | 3.05 | –
Cc1cc(C(=O)N2CC[C@@H](C(=O)N3CC[C@](O)(Cn4cnc(Oc5ccc(F)cc5)c(N)c4=O)C(F)(F)C3)[C@H](c3ccccc3)C2)nn1-c1ccccc1 [Example 120, 5-amino-3-({(4S)-3,3-difluoro-4-hydroxy-1-[(3R,4R)-1-(5-methyl-1-phenyl-1H-pyrazole-3-carbonyl)-3phenylpiperidine-4-carbonyl]piperidin-4-yl)methyl)-6(4-fluorophenoxy)pyrimidin-4(3H)-one] | 41.3 | 45.4 | –
Nc1c(Oc2ccc(F)cc2)ncn(CC2(O)CCN(C(=O)[C@@H]3CCN(C(=O)Nc4ccccc4C(F)(F)F)C[C@H]3c3ccccc3)CC2)c1=O [Example 128, (3R,4R)-4-[4-[[5-amino-4-(4-fluorophenoxy)-6-oxo-pyrimidin-1-yl]methyl]-4-hydroxy-piperidine-1-carbonyl]-3-phenyl-N-[2-(trifluoromethyl)phenyl]piperidine-1-carboxamide] | 75 | 38.6 | –
Cc1nc(C2CC(F)(F)C2)sc1C(=O)N1CC[C@@H](C(=O)N2CCC(O)(Cn3cnc(Oc4ccc(F)cc4)c(N)c3=O)CC2)[C@H](c2ccccc2)C1 [Example 189] | 6.34 | 11.1 | –
Cc1ccccc1C1(N2CC[C@@H](C(=O)N3CCC(O)(Cn4cnc(Oc5ccc(F)cc5)c(N)c4=O)CC3)[C@H](c3ccccc3)C2)COC1 [Example 138] | 24 | 45 | –
Nc1c(Oc2ccccc2)ncn(CC2(O)CCN(C(=O)[C@@H]3CCN(C4(c5ccccc5F)COC4)C[C@H]3c3ccccc3)CC2)c1=O [Example 114] | 22 | 66 | –
Nc1c(Oc2ccc(F)cc2)ncn(CC2(O)CCN(C(=O)[C@@H]3CCN(C(=O)c4cncc(Br)c4)C[C@H]3c3ccccc3)CC2)c1=O [Example 33, 5-amino-3-({1-[(3R,4R)-1-(5-bromopyridine-3-carbonyl)-3-phenylpiperidine-4-carbonyl]-4-hydroxypiperidin-4-yl}methyl)-6-(4-fluorophenoxy)pyrimidin-4(3)-one] | 2.55 | 7.77 | –
Nc1c(Oc2ccc(F)cc2)ncn(CC2(O)CCN(C(=O)[C@@H]3CCN(C4(c5cccc(Cl)c5)COC4)C[C@H]3c3ccccc3)CC2)c1=O [Example 171] | 31.4 | 42.8 | –
Cc1ccc(-c2ncc(C(=O)N3CC[C@@H](C(=O)N4CCC(O)(Cn5cnc(Oc6ccc(F)cc6)c(N)c5=O)CC4)[C@H](c4ccccc4)C3)n2C)cn1 [Example 96, 5-amino-6-(4-fluorophenoxy)-3-[(4-hydroxy-1-{(3R,4R)-1-[1-methyl-2-(6-methylpyridin-3-yl)-1H-imidazole-5-carbonyl]-3-phenylpiperidine-4-carbonyl}piperidin-4-yl)methyl]pyrimidin-4(3H)-one] | 27.3 | 7.21 | –
